In US12239636B2, “Combined sirolimus and nintedanib therapy for vascular lesions and hereditary hemorrhagic telangiectasia” (THE FEINSTEIN INSTITUTES FOR MEDICAL RESEARCH, priority 2018, dated 2025):
Where two headings read alike, the source gives them in different places.

Columns and labels:
VEGFR2 [1] = target: T1, VEGFR2 (Homo sapiens, UniProt P35968); experiment: VEGF-induced VEGFR2 activation in primary ECs; type: cell-based
T1 construct: endogenous in cells; host or cells: primary ECs

VEGFR2 [2] = target: T2, VEGFR2 (Mus musculus, UniProt P35918); experiment: phospho-VEGFR2 in liver ECs and retina of tBMP9/10ib mice; type: in vivo
T2 construct: protein homogenates of liver ECs isolated from tBMP9/10ib mice; from tissue; host or cells: liver endothelial cells and retina of tBMP9/10ib mice

neonatal retina = experiment: Dose finding: physiological retinal vascular development in pups; conditions: i.p. injection of pups, Nin every third day, not before P5
[3] = LC-MS serum drug concentrations in injected pups
tBMP9/10ib mice [4] = experiment: Prevention of retinal vascular pathology in tBMP9/10ib HHT mice (treatment P3-P5, analysis at P6)
Method: Mouse pups were administered preventively and daily with Siro from P3 to P5 (0.5 mg/kg, i.p.) and with Nin at P5 (0.3 mg/kg, i.p.). Mice were then analyzed at P6, a time point at which retinal vessel dilation, hypervascularization, and AVMs can readily be observed and quantified in this model.

[5] = mouse, in vivo
tBMP9/10ib mice [6] = conditions: 0.5 mg/kg, P3-P5, i.p.; Ruiz et al., 2017; cited from earlier work
[7] = tBMP9/10ib retinas at P6, Siro 0.5 mg/kg i.p. P3-P5, Nin 0.3 mg/kg i.p. at P5

T2 sequence (P35918 20-1345): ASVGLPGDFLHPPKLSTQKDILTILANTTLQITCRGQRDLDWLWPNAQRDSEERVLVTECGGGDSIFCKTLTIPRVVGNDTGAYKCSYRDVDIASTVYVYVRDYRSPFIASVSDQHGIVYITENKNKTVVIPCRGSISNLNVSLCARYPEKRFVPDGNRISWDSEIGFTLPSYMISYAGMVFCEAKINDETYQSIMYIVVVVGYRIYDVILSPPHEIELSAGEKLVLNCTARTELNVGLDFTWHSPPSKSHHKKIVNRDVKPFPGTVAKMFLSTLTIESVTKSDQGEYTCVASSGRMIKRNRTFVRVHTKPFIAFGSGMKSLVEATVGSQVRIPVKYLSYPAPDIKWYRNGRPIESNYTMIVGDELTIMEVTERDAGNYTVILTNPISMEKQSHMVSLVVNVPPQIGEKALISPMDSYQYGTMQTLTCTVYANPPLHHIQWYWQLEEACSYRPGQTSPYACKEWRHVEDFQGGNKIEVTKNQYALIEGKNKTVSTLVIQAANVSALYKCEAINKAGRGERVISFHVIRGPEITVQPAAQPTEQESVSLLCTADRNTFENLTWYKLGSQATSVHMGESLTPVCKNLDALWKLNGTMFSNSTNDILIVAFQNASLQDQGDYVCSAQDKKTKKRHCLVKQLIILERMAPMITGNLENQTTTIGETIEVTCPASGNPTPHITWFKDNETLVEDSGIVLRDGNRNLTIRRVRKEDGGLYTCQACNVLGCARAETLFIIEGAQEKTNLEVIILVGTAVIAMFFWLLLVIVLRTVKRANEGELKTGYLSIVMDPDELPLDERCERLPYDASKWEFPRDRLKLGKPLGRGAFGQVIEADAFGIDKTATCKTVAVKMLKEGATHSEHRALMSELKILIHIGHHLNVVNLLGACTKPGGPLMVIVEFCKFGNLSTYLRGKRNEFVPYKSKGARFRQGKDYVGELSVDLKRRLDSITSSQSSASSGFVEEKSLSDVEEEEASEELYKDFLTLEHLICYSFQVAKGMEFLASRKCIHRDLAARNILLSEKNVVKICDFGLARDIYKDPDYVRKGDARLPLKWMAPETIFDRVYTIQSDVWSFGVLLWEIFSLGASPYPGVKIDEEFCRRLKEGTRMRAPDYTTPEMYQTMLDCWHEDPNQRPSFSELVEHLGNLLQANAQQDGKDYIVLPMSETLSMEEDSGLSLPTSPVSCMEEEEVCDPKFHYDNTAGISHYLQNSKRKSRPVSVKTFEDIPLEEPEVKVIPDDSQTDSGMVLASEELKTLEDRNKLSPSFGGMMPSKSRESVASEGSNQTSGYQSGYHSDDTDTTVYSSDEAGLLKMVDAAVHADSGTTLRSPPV
T1 sequence (P35968 20-1356, species assumed): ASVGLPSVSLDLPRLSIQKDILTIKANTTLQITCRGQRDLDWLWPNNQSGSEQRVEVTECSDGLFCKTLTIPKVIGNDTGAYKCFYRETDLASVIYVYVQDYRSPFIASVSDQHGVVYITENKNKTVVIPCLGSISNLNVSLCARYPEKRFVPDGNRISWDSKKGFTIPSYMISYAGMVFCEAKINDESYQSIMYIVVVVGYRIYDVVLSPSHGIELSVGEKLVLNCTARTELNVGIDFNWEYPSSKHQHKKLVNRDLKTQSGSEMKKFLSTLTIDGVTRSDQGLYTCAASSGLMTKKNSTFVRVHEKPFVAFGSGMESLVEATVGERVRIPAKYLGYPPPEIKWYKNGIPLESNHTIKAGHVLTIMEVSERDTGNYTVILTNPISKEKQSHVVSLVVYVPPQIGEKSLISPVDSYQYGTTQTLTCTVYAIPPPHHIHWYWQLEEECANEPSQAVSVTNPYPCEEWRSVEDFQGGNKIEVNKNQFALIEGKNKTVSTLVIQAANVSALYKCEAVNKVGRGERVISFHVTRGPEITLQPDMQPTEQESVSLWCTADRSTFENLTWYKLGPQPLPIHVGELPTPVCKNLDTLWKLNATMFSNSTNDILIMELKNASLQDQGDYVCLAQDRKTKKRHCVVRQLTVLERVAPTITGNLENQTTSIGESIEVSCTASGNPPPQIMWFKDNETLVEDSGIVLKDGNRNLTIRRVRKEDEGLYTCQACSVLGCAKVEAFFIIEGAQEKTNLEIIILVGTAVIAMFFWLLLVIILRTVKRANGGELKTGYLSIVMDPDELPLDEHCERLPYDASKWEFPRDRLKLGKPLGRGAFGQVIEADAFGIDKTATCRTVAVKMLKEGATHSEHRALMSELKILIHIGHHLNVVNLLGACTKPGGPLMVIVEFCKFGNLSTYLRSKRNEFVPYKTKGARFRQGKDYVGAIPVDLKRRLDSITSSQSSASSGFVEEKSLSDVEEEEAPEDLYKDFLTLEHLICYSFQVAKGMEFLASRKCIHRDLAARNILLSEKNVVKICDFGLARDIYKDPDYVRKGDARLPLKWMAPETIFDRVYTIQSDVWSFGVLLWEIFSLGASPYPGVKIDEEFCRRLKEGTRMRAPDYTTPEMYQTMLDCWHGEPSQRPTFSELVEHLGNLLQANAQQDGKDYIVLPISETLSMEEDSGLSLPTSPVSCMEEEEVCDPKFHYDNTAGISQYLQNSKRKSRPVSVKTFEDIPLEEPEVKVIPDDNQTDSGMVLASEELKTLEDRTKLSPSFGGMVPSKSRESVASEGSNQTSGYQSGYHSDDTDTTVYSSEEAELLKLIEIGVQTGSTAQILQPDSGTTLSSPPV

| average serum concentration [5] [nM] | Compound | VEGF-induced VEGFR2 activation (VEGFR2 [1]) | elevation of activated phospho-VEGFR2 (p-VEGFR2) (VEGFR2 [2]) | highest dose that did not affect normal vascular development (neonatal retina) [mg/kg] | average serum concentration ([3]; injected P6 pups, Siro 0.5 mg/kg i.p., Nin 0.3 mg/kg i.p.) [nM] | average serum concentration ([3]; pup serum at P9, three additional days of treatment) [nM] | vascular pathology (tBMP9/10ib mice [4]; HHT mice, sirolimus 0.5 mg/kg/day, nintedanib 0.3 mg/kg/day, alone or combined) | AVM diameter (tBMP9/10ib mice [4]; [7]) | increase in density of the vascular plexus (tBMP9/10ib mice [4]; [7]) | vein dilation (tBMP9/10ib mice [4]; [7]) | AVM number (tBMP9/10ib mice [4]; tBMP9/10ib retinas at P6, Siro 0.5 mg/kg i.p. P3-P5, Nin 0.3 mg/kg i.p. at P5, mean) | increase in density of the vascular plexus (tBMP9/10ib mice [6]) | vein dilation (tBMP9/10ib mice [6]) |
| --- | --- | --- | --- | --- | --- | --- | --- | --- | --- | --- | --- | --- | --- |
| – | COC(=O)c1ccc2c(c1)NC(=O)/C2=C(\Nc1ccc(N(C)C(=O)CN2CCN(C)CC2)cc1)c1ccccc1 [Nin, nintedanib] | fully inhibited | significantly inhibited | 0.3 | 5.3 | 24.7 | moderate-to-negligible effect | failed to reduce | failed to reduce | failed to reduce | failed to reduce | – | – |
| 22.6 | CO[C@H]1C[C@@H]2CC[C@@H](C)[C@@](O)(O2)C(=O)C(=O)N2CCCC[C@H]2C(=O)O[C@H]([C@H](C)C[C@@H]2CC[C@@H](O)[C@H](OC)C2)CC(=O)[C@H](C)/C=C(\C)[C@@H](O)[C@@H](OC)C(=O)[C@H](C)C[C@H](C)/C=C/C=C/C=C/1C [Siro, sirolimus] | – | – | 0.5 | – | – | – | – | – | – | – | – | – |
| – | C=CC[C@@H]1/C=C(\C)C[C@H](C)C[C@H](OC)[C@H]2O[C@@](O)(C(=O)C(=O)N3CCCC[C@H]3C(=O)O[C@H](/C(C)=C/[C@@H]3CC[C@@H](O)[C@H](OC)C3)[C@H](C)[C@@H](O)CC1=O)[C@H](C)C[C@@H]2OC [Tac, tacrolimus] | – | – | – | – | – | – | – | – | – | – | prevented | prevented |
